US20220280572A1, “METHODS OF TREATING VASCULAR DISEASES” (Astellas Institute for Regenerative Medicine, priority 2019, published 2022)

Tested on: lung microvasculature
Assay: Micro CT scanning of lungs from the SuHx model
Type: in vivo, rat
Conditions: SuHx rats; sildenafil treatment
Procedure: Endothelial progenitor cells are reported to preserve microvasculature in MCT treated lung (Zhao et al. Cir. Res. 96:442-450 (2005)). Therefore, micro CT scanning was performed on the lungs from the SuHx model treated with Nx control, vehicle, sildenafil, and 1 million and 5 million GMP1-HE cells.

In the case of CCCc1nn(C)c2c(=O)[nH]c(-c3cc(S(=O)(=O)N4CCN(C)CC4)ccc3OCC)nc12 [sildenafil], the “capillary perfusion (microCT)” value is reported as “modest improvement”.
